Reference: patent US10538555B2, “Macrocyclic inhibitors of the PD-1/PD-L1 and CD80(B7-1)/PD-L1 protein/protein interactions” (BRISTOL-MYERS SQUIBB COMPANY, priority 2014, dated 2020)
*1 amine or outer side, *2 acyl side, *3 side chain or, on linkers, in order; H or OH if unused. Where a SMILES comes first, the peptide text is derived from it. Bridges are numbered along the chain shown (N, C = ends). [ ]: non-standard residue; d: D form. ξ: configuration not given here. Trp(1-CH2COOH) = N[C@@H](Cc1cn(CC(=O)O)c2ccccc12)C(=O)O; Phe(3,4,5-F3) = N[C@@H](Cc1cc(F)c(F)c(F)c1)C(=O)O; Trp(7-Br) = N[C@@H](Cc1c[nH]c2c(Br)cccc12)C(=O)O; NMePhe(4-F) = CN[C@@H](Cc1ccc(F)cc1)C(=O)O; Phe(4-F) = N[C@@H](Cc1ccc(F)cc1)C(=O)O; d(cisHyp) = O=C(O)[C@H]1C[C@@H](O)CN1; Hyp = O=C(O)[C@@H]1C[C@@H](O)CN1; NMeF = CN[C@@H](Cc1ccccc1)C(=O)O; NMeNle = CCCC[C@H](NC)C(=O)O; NMeV = CN[C@H](C(=O)O)C(C)C; hSer = N[C@@H](CCO)C(=O)O; NMeA = CN[C@@H](C)C(=O)O; Orn = NCCC[C@H](N)C(=O)O; dThz = O=C(O)[C@H]1CSCN1; Dab = NCC[C@H](N)C(=O)O; Dap = NC[C@H](N)C(=O)O; CO = O=C([*:1])[*:2]; ξC = NC(CS)C(=O)O; Sar = CNCC(=O)O

target: T1, Human PD-L1/PD-1 (Homo sapiens, UniProt Q9NZQ7); assay: HTRF Human PD-L1/PD-1 binding assay (PD-1-Ig/PD-L1-His); conditions: PD-L1-His 10 nM, PD-1-Ig 20 nM; class symbol; read-out: HTRF Human PD-L1/PD-1 Binding Assay IC50 Range
T1 construct: TVMV protease cleavage site (C); made in house; host or cells: HEK293T cells
In short: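 Compound preincubated 15 min with PD-L1-His (10 nM final), then PD-1-Ig (20 nM final) added for 15 min in dPBS with 0.1% BSA and 0.05% Tween-20. Detection by Eu-cryptate anti-Ig (1 nM) and APC anti-His (20 nM) after 30 min; 665/620 nm HTRF ratio. Proteins expressed in HEK293T.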

T1 sequence (Q9NZQ7 with tags, fused parts or gaps): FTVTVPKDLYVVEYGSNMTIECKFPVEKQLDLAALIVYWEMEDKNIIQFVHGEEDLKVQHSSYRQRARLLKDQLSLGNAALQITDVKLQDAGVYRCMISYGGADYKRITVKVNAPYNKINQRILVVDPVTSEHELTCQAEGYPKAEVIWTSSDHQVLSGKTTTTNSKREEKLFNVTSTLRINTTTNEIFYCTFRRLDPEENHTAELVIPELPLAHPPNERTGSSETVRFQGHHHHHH

| IC50 | SMILES |
| --- | --- |
| 1 to 9.9 nM | CCCC[C@H]1C(=O)N2C[C@H](O)C[C@@H]2C(=O)N[C@@H](CC(=O)O)C(=O)N[C@@H](C(C)C)C(=O)N(C)[C@@H](Cc2ccccc2)C(=O)N[C@@H](CCC(=O)O)C(=O)N2CSC[C@@H]2C(=O)N[C@@H](Cc2c[nH]c3ccccc23)C(=O)N[C@@H](Cc2ccc(O)cc2)C(=O)N[C@@H](CCO)C(=O)N[C@H](C(=O)NCC(N)=O)CSCC(=O)N[C@@H](Cc2cc(F)c(F)c(F)c2)C(=O)N(C)[C@@H](Cc2ccccc2)C(=O)N1C [Example 10150] ({CH2CO}-[Phe(3,4,5-F3)][NMeF][NMeNle][d(cisHyp)]DV[NMeF]E[dThz]WY[hSer]CG-NH2; thioether N-13) |
| 1 to 9.9 nM | CCCC[C@H]1C(=O)N(C)[C@@H](CCCC)C(=O)N[C@@H](CCC(=O)O)C(=O)N[C@H](C(=O)NCC(N)=O)CSCC(=O)N[C@@H](Cc2ccc(O)cc2)C(=O)N(C)[C@@H](C)C(=O)N[C@@H](CC(N)=O)C(=O)N2CCC[C@H]2C(=O)N[C@@H](Cc2cnc[nH]2)C(=O)N[C@@H](CCC(N)=O)C(=O)N2C[C@H](O)C[C@H]2C(=O)N[C@@H](Cc2c[nH]c3ccccc23)C(=O)N[C@@H](CCCCN)C(=O)N[C@@H](Cc2cn(CC(=O)O)c3ccccc23)C(=O)N1C [Example 6324] ({CH2CO}-Y[NMeA]NPHQ[Hyp]WK[Trp(1-CH2COOH)][NMeNle][NMeNle]ECG-NH2; thioether N-14) |
| 100 to 990 nM | CCCC[C@H]1C(=O)N(C)[C@@H](CCCC)C(=O)N[C@@H](CCC(=O)O)C(=O)NC(C(=O)NCC(N)=O)CSCC(=O)N[C@@H](Cc2ccc(O)cc2)C(=O)N(C)[C@@H](C)C(=O)N[C@@H](CC(N)=O)C(=O)N2CCC[C@H]2C(=O)N[C@@H](CC(N)=O)C(=O)N[C@@H](CC(C)C)C(=O)N2C[C@H](O)C[C@H]2C(=O)N[C@@H](Cc2c[nH]c3ccccc23)C(=O)N[C@@H](CN)C(=O)N[C@@H](Cc2c[nH]c3ccccc23)C(=O)N1C (stereo partly drawn) [Example 9177] ({CH2CO}-Y[NMeA]NPNL[Hyp]W[Dap]W[NMeNle][NMeNle]E[ξC]G-NH2; thioether N-14) |
| 100 to 990 nM | CCCC[C@H]1C(=O)N[C@@H](CCC(N)=O)C(=O)N2CCC[C@@H]2C(=O)N[C@@H](Cc2c[nH]c3ccccc23)C(=O)N[C@@H](Cc2ccc(O)cc2)C(=O)N[C@@H](CCCN)C(=O)N[C@H](C(=O)NCC(N)=O)CSCC(=O)N[C@@H](Cc2ccc(F)cc2)C(=O)N(C)[C@@H](Cc2ccccc2)C(=O)N(C)[C@@H](CCCC)C(=O)N2CCC[C@@H]2C(=O)N[C@@H](CC(=O)O)C(=O)N[C@@H](C(C)C)C(=O)N1C [Example 9217] ({CH2CO}-[Phe(4-F)][NMeF][NMeNle][dP]DV[NMeNle]Q[dP]WY[Orn]CG-NH2; thioether N-13) |
| 1 to 9.9 nM | CCCC[C@H]1C(=O)N2C[C@H](O)C[C@@H]2C(=O)N[C@@H](CC(=O)O)C(=O)N[C@@H](C(C)C)C(=O)N(C)[C@@H](Cc2ccccc2)C(=O)N[C@@H](CCN)C(=O)N2C[C@H](O)C[C@@H]2C(=O)N[C@@H](Cc2c[nH]c3ccccc23)C(=O)N[C@@H](Cc2ccc(O)cc2)C(=O)N[C@@H](CCCN)C(=O)N[C@H](C(=O)NCC(N)=O)CSCC(=O)N[C@@H](Cc2cc(F)c(F)c(F)c2)C(=O)N(C)[C@@H](Cc2ccc(F)cc2)C(=O)N1C [Example 10613] ({CH2CO}-[Phe(3,4,5-F3)][NMePhe(4-F)][NMeNle][d(cisHyp)]DV[NMeF][Dab][d(cisHyp)]WY[Orn]CG-NH2; thioether N-13) |
| 10 to 99.9 nM | CCCC[C@H]1C(=O)N2C[C@H](O)C[C@@H]2C(=O)N[C@@H](CC(=O)O)C(=O)N[C@@H](C(C)C)C(=O)N(C)[C@@H](Cc2ccccc2)C(=O)N[C@@H](CC(N)=O)C(=O)N2C[C@H](O)C[C@@H]2C(=O)N[C@@H](Cc2c[nH]c3ccccc23)C(=O)N[C@@H](Cc2ccc(O)cc2)C(=O)N[C@@H](CCC(=O)O)C(=O)N[C@H](C(=O)NCC(N)=O)CSCC(=O)N[C@@H](Cc2cc(F)c(F)c(F)c2)C(=O)N(C)[C@@H](Cc2ccccc2)C(=O)N1C [Example 9366] ({CH2CO}-[Phe(3,4,5-F3)][NMeF][NMeNle][d(cisHyp)]DV[NMeF]N[d(cisHyp)]WYECG-NH2; thioether N-13) |
| 1000 to 10000 nM | CCCC[C@H]1C(=O)N2CCC[C@@H]2C(=O)N[C@@H](CC(=O)O)C(=O)N[C@@H](C(C)C)C(=O)N(C)[C@@H](C(C)C)C(=O)N[C@@H](CCC(N)=O)C(=O)N2CCC[C@@H]2C(=O)N[C@@H](Cc2c[nH]c3ccccc23)C(=O)N[C@@H](Cc2ccc(O)cc2)C(=O)N[C@@H](CCCN)C(=O)N[C@H](C(=O)NCC(N)=O)CSCC(=O)N[C@@H](Cc2ccc(F)cc2)C(=O)N(C)[C@@H](Cc2ccccc2)C(=O)N1C [Example 9247] ({CH2CO}-[Phe(4-F)][NMeF][NMeNle][dP]DV[NMeV]Q[dP]WY[Orn]CG-NH2; thioether N-13) |
| 100 to 990 nM | CCCC[C@H]1C(=O)N2CCC[C@@H]2C(=O)N[C@@H](CO)C(=O)N[C@@H](C)C(=O)N(C)[C@@H](Cc2ccccc2)C(=O)N[C@@H](Cc2ccc(O)cc2)C(=O)N(C)CC(=O)N[C@@H](Cc2c[nH]c3ccccc23)C(=O)N[C@@H](Cc2ccc(O)cc2)C(=O)N[C@@H](CC(C)C)C(=O)N[C@H](C(=O)NCC(N)=O)CSCC(=O)N[C@@H](Cc2ccccc2)C(=O)N(C)[C@@H](Cc2ccccc2)C(=O)N1C [Example 10054] ({CH2CO}-F[NMeF][NMeNle][dP]SA[NMeF]Y[Sar]WYLCG-NH2; thioether N-13) |
| 1 to 9.9 nM | CCCC[C@H]1C(=O)N2C[C@H](O)C[C@@H]2C(=O)N[C@@H](CC(=O)O)C(=O)N[C@@H](C(C)C)C(=O)N(C)[C@@H](Cc2ccccc2)C(=O)N[C@@H](CC(=O)O)C(=O)N2C[C@H](O)C[C@@H]2C(=O)N[C@@H](Cc2c[nH]c3ccccc23)C(=O)N[C@@H](Cc2ccc(O)cc2)C(=O)N[C@@H](CCCCN)C(=O)N[C@H](C(=O)NCC(N)=O)CSCC(=O)N[C@@H](Cc2cc(F)c(F)c(F)c2)C(=O)N(C)[C@@H](Cc2ccccc2)C(=O)N1C [Example 9345] ({CH2CO}-[Phe(3,4,5-F3)][NMeF][NMeNle][d(cisHyp)]DV[NMeF]D[d(cisHyp)]WYKCG-NH2; thioether N-13) |
| 10 to 99.9 nM | CCCC[C@H]1C(=O)N(C)[C@@H](CCCC)C(=O)N[C@@H](CNC(=O)O)C(=O)N[C@H](C(=O)NCC(N)=O)CSCC(=O)N[C@@H](Cc2ccc(O)cc2)C(=O)N(C)[C@@H](C)C(=O)N[C@@H](CC(=O)O)C(=O)N2CCC[C@H]2C(=O)N[C@@H](CN)C(=O)N[C@@H](CCC(=O)O)C(=O)N2C[C@H](O)C[C@H]2C(=O)N[C@@H](Cc2c[nH]c3ccccc23)C(=O)N[C@@H](CCC(=O)O)C(=O)N[C@@H](Cc2c[nH]c3ccccc23)C(=O)N1C [Example 5154] ({CH2CO}-Y[NMeA]DP[Dap]E[Hyp]WEW[NMeNle][NMeNle][Dap](CO)CG-NH2; thioether N-14) |
| 1 to 9.9 nM | CCCC[C@H]1C(=O)N(C)[C@@H](CCCC)C(=O)N[C@@H](CCCCN)C(=O)N[C@H](C(=O)NCC(N)=O)CSCC(=O)N[C@@H](Cc2ccc(O)cc2)C(=O)N(C)[C@@H](C)C(=O)N[C@@H](CC(=O)O)C(=O)N2CCC[C@H]2C(=O)N[C@@H](Cc2c[nH]cn2)C(=O)N[C@@H](CC(C)C)C(=O)N2C[C@H](O)C[C@H]2C(=O)N[C@@H](Cc2c[nH]c3ccccc23)C(=O)N[C@@H](CO)C(=O)N[C@@H](Cc2c[nH]c3ccccc23)C(=O)N1C [Example 11002] ({CH2CO}-Y[NMeA]DPHL[Hyp]WSW[NMeNle][NMeNle]KCG-NH2; thioether N-14) |
| 10 to 99.9 nM | CCCC[C@H]1C(=O)N(C)[C@@H](CCCC)C(=O)N[C@@H](CCC(=O)O)C(=O)N[C@H](C(=O)NCC(N)=O)CSCC(=O)N[C@@H](Cc2ccc(OC)cc2)C(=O)N(C)[C@@H](C)C(=O)N[C@@H](CC(N)=O)C(=O)N2CCC[C@H]2C(=O)N[C@@H](CN)C(=O)N[C@@H](CCCCN)C(=O)N2C[C@H](O)C[C@H]2C(=O)N[C@@H](Cc2c[nH]c3ccccc23)C(=O)N[C@@H](CCN)C(=O)N[C@@H](Cc2cn(CC(=O)O)c3ccccc23)C(=O)N1C [Example 7146] ({CH2CO}-Y(Me)[NMeA]NP[Dap]K[Hyp]W[Dab][Trp(1-CH2COOH)][NMeNle][NMeNle]ECG-NH2; thioether N-14) |
| 1 to 9.9 nM | CCCC[C@H]1C(=O)N(C)[C@@H](CCCC)C(=O)N[C@@H](CCCN)C(=O)N[C@H](C(=O)NCC(N)=O)CSCC(=O)N[C@@H](Cc2ccc(OC)cc2)C(=O)N(C)[C@@H](C)C(=O)N[C@@H](CC(=O)O)C(=O)N2CCC[C@H]2C(=O)N[C@@H](Cc2cnc[nH]2)C(=O)N[C@@H](CCCCN)C(=O)N2C[C@H](O)C[C@H]2C(=O)N[C@@H](Cc2c[nH]c3ccccc23)C(=O)N[C@@H](CC(=O)O)C(=O)N[C@@H](Cc2c[nH]c3ccccc23)C(=O)N1C [Example 7106] ({CH2CO}-Y(Me)[NMeA]DPHK[Hyp]WDW[NMeNle][NMeNle][Orn]CG-NH2; thioether N-14) |
| 10 to 99.9 nM | CCCC[C@H]1C(=O)N(C)[C@@H](CCCC)C(=O)N[C@@H](CCCNC(=N)N)C(=O)NC(C(=O)NCC(N)=O)CSCC(=O)N[C@@H](Cc2ccc(O)cc2)C(=O)N(C)[C@@H](C)C(=O)N[C@@H](CC(N)=O)C(=O)N2CCC[C@H]2C(=O)N[C@@H](CO)C(=O)N[C@@H](CO)C(=O)N2C[C@H](O)C[C@H]2C(=O)N[C@@H](Cc2c[nH]c3ccccc23)C(=O)N[C@@H](CO)C(=O)N[C@@H](Cc2c[nH]c3ccccc23)C(=O)N1C (stereo partly drawn) [Example 10018] ({CH2CO}-Y[NMeA]NPSS[Hyp]WSW[NMeNle][NMeNle]R[ξC]G-NH2; thioether N-14) |

same assay, conditions: PD-L1-His 10 nM, PD-1-Ig 20 nM; read-out: HTRF Human PD-L1/PD-1 Binding Assay IC50

| IC50 | SMILES |
| --- | --- |
| 451 nM | CCCC[C@H]1C(=O)N(C)[C@@H](CCCC)C(=O)N[C@@H](C)C(=O)N[C@H](C(=O)NCC(N)=O)CSCC(=O)N[C@@H](Cc2ccc(O)cc2)C(=O)N(C)[C@@H](C)C(=O)N[C@@H](CC(N)=O)C(=O)N2CCC[C@H]2C(=O)N[C@@H](Cc2cnc[nH]2)C(=O)N[C@@H](CCC(N)=O)C(=O)N2C[C@H](O)C[C@H]2C(=O)N[C@@H](Cc2c[nH]c3ccccc23)C(=O)N[C@@H](CO)C(=O)N[C@@H](Cc2c[nH]c3c(Br)cccc23)C(=O)N1C [Example 1541] ({CH2CO}-Y[NMeA]NPHQ[Hyp]WS[Trp(7-Br)][NMeNle][NMeNle]ACG-NH2; thioether N-14) |
